The target of data set [1] is T1, SrtA (Staphylococcus aureus, UniProt Q2FV99).
T1 construct: purchased Anaspec, San Jose, CA, USA
The experiment in a line: Sortase A activity assay (FRET, SensoLyte 520 kit). It counts as biochemical, S. aureus. Particulars: for SrtA inhibitory activity relative to myricetin (fold lower; myricetin IC50 fold lower than this compound): ratio of IC50 values to myricetin. As for the experimental part: The inhibitory activity of all of the compounds was determined by quantifying the increase in fluorescence intensity upon a cleavage 5-FAM/QXL® FRET substrate using a SensoLyte® 520 Sortase A Activity Assay Kit (Anaspec, San Jose, CA, USA). According to kit protocol, reactions were performed in a 96-well plate, with each well containing 10 μL test compound solution, 40 μL enzyme solution, and 50 μL sortase substrate solution. All compounds were dissolved in dimethyl sulfoxide (DMSO) and diluted with sterilized distilled water. The final concentration of DMSO was 1%. Each compound diluted in buffer to the tested concentration and was checked for intrinsic fluorescence. According to the kit protocol, we used the enzyme without the test compound as a control, a 1% DMSO control, and a substrate control. We used the kit inhibitor, 4-hydroxymercuribenzoic acid (HMB), as the positive control. Reactions were carried out for 1 h at room temperature and analyzed fluorometrically (SpectraMAX Gemini XS, CA, USA) at Ex/Em = 490 nm/520 nm. All reported values are the means of triplicate assays.

A short description of data set [2]: in vivo. Particulars: in vivo. As for the experimental part: (§1) The Daphnia magna test was performed in 4 mL 12-tissue culture wells, using 10 daphnids/well, with each sample being tested in duplicate. […] All experiments were conducted in the dark, in a plant growth chamber (Sanyo MLR-351 H, San Diego, CA, USA) at 25 ± 1 °C [32, 33].
(§2) Statistical analysis of the inhibitory effect on SrtA and the Daphnia magna bioassay was performed using GraphPad Prism version 5.01 software (GraphPad Software, Inc., La Jolla, CA, USA). A student’s t-test (p < 0.05) was applied in order to analyze the results obtained from replicates. […] The inhibition (I %) and lethality percentage (L %) values were calculated and plotted against the logarithm of concentrations and the corresponding curves were calculated using the least squares fit method. […] Whenever the obtained results permitted, the upper and lower limits of the 95% confidence interval (95% CI) and the correlation coefficient (r^2) were calculated.

Data set [3] deals with Daphnia magna. The experiment in a line: in vivo. Particulars: for Maximum lethality: after 48 h, tested 0.5 to 100 μM; for Highest lethality: after 48 h of exposure at 100 μM; for Toxicity on Daphnia magna (result in words): in vivo. As for the experimental part: as §1, §2
Data set [4] in a line: Solubility in water (observation during FRET testing).

This is an account of results in publication PMC5666896, “Molecular Docking and Screening Studies of New Natural Sortase A Inhibitors” (International Journal of Molecular Sciences, 2017).

“Also recorded” adds a separate entry of the source. Like-named read-outs stand apart in the source and are kept apart here.

T1 sequence (Q2FV99 whole entry): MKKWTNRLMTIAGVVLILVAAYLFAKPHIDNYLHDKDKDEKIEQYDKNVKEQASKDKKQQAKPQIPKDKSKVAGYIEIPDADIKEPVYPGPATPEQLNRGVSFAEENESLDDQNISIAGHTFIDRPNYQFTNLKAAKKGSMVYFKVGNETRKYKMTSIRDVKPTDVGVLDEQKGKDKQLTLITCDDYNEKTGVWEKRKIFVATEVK

What is called inhibition is the drop in the measured response relative to a control, in per cent. Higher therefore signals a strong effect. As for `C[C@@H]1CC[C@H]2[C@@H](C)C(=O)O[C@@H]3O[C@@]4(C)CC[C@@H]1[C@]32OO4` [Artemisinin, reference compound], in data set [1], the “SrtA inhibition (result in words)” value was “statistically significant SrtA inhibition” and the inhibition at 50 µM was determined as 5.32%.
As usually defined, the LC50 is the concentration that kills 50% of the test population. Lower therefore signals greater toxicity. For the compound `O=c1cc(-c2ccccc2)oc2cc(O)cc(O)c12` [Chrysin], in data set [1], the “SrtA inhibition (result in words)” value is listed as “statistically significant SrtA inhibition”. In addition, in data set [2], the LC50 at 48 h was determined as 17.7 µM.
A word on the IC50: it is the concentration at which inhibition is half-maximal. For the compound `O=c1ccc2cc(O)c(O)cc2o1` [Esculetin], in data set [1], the IC50 was 36.2 µM, the “SrtA inhibition (result in words)” value is reported as “statistically significant SrtA inhibition”, testing at 250 µM gave an inhibition of 83.6% and the “SrtA inhibitory activity relative to myricetin (fold lower; myricetin IC50 fold lower than this compound)” value is given as “eight-fold”. For the same compound, in data set [3], the Maximum lethality is recorded as at most 30% and the Highest lethality is listed as at most 30%.
For `O=c1ccc2cc(O[C@@H]3O[C@H](CO)[C@@H](O)[C@H](O)[C@H]3O)c(O)cc2o1` [Esculin, Esculin sesquihydrate], the “SrtA inhibition (result in words)” value in data set [1] is recorded as “low SrtA inhibition”.
For `O=c1c(-c2ccc(O)cc2)coc2cc(O)cc(O)c12` [Genistein], in data set [1], the inhibition at 500 µM worked out at 9.63%.
For `O=C(O)c1cc[c]([Hg][OH])cc1` [HMB, 4-hydroxymercuribenzoic acid, reference compound], in data set [1] (5 μM, after 1 h of incubation), the “Inhibition (%)” value came out at 93.87%. The IC50 in data set [1] (after 1 h of incubation, read-out: IC50) stood at 0.114 µM.
Regarding `O=c1c(O)c(-c2cc(O)c(O)c(O)c2)oc2cc(O)cc(O)c12` [Myricetin], in data set [1], the IC50 came to 4.63 µM, the “SrtA inhibition (result in words)” value was “statistically significant SrtA inhibition” and the inhibition at 100 µM turned out to be 92%. For the same compound, in data set [3], the Maximum lethality is recorded as at most 30% and the Highest lethality was at most 30%.
`COc1cc2c(cc1OC)-c1cc3ccc(OC)c(OC)c3c[n+]1CC2` [Palmatine chloride]: in data set [1], it took 52.8 µM to reach half-maximal inhibition (IC50), the “SrtA inhibition (result in words)” value was “statistically significant SrtA inhibition”, the inhibition at 500 µM is 85.3% and the “SrtA inhibitory activity relative to myricetin (fold lower; myricetin IC50 fold lower than this compound)” value is given as “eleven-fold”. In data set [3], this compound yielded a Maximum lethality of at most 30% and a Highest lethality of at most 30%.
In the case of `O=C(/C=C/C=C/c1ccc2c(c1)OCO2)N1CCCCC1` [Piperine], in data set [1], the “SrtA inhibition (result in words)” value is listed as “statistically significant SrtA inhibition” and the inhibition at 10 µM is 14.9%. In data set [2], this compound had an LC50 at 24 h of 145 µM and an LC50 at 48 h of 3.45 µM. Besides, the “Toxicity on Daphnia magna (result in words)” value in data set [3] is reported as “high level of toxicity”. In data set [4], the “Solubility in water (result in words)” value was “low solubility in water; also recorded: low aqueous solubility”.
In the case of `COc1cc([C@@H]2c3cc4c(cc3[C@H](O)[C@H]3COC(=O)[C@H]23)OCO4)cc(OC)c1OC` [Podophyllotoxin], in data set [1], the “SrtA inhibition (result in words)” value is given as “statistically significant SrtA inhibition” and 50 µM produced 26.4% inhibition. This compound also showed an LC50 at 48 h in data set [2] of 6.47 µM. The “Toxicity on Daphnia magna (result in words)” value in data set [3] is recorded as “high level of toxicity”. In addition, the “Solubility in water (result in words)” value in data set [4] is “low aqueous solubility”.
Turning to `O=C(O)[C@]1(O)C[C@@H](O)[C@@H](O)[C@H](O)C1` [Quinic acid], in data set [1], the “SrtA inhibition (result in words)” value is “statistically significant SrtA inhibition” and testing at 500 µM gave an inhibition of 19.6%.
Take `C[C@@H]1O[C@@H](OC[C@H]2O[C@@H](Oc3c(-c4ccc(O)c(O)c4)oc4cc(O)cc(O)c4c3=O)[C@H](O)[C@@H](O)[C@@H]2O)[C@H](O)[C@H](O)[C@H]1O` [Rutin trihydrate]: in data set [1], the “SrtA inhibition (result in words)” value was “statistically significant SrtA inhibition” and the inhibition at 500 µM worked out at 28.7%. In data set [3], the Maximum lethality is on record as at most 30% and the Highest lethality is listed as at most 30%.
`C[C@@H]1O[C@@H](OC[C@H]2O[C@@H](Oc3c(-c4ccc(OCCO)c(OCCO)c4)oc4cc(OCCO)cc(O)c4c3=O)[C@H](O)[C@@H](O)[C@@H]2O)[C@H](O)[C@H](O)[C@H]1O` [Troxerutin]: in data set [1], the “SrtA inhibition (result in words)” value is given as “statistically significant SrtA inhibition” and the inhibition at 500 µM was 23.5%. In data set [3], this compound came in with a Maximum lethality of at most 30% and a Highest lethality of at most 30%.
As for `O=c1ccc2ccc(O)cc2o1` [Umbelliferone], in data set [1], the “SrtA inhibition (result in words)” value was “statistically significant SrtA inhibition; also recorded: small inhibitory effect” and the inhibition at 250 µM worked out at 4.04%. The compound further displayed an LC50 at 48 h in data set [2] of 105 µM.
On to `O=C(O)/C=C/c1ccc(O)c(O)c1` [caffeic acid, Caffeic acid], for which the “SrtA inhibition (result in words)” value in data set [1] was “inactive”.
For `O=c1ccc2ccccc2o1` [coumarin, Coumarin], in data set [1], the “SrtA inhibition (result in words)” value is recorded as “small inhibitory effect”.
On to `C[C@@H]1O[C@@H](O[C@H]2[C@H](Oc3cc(O)c4c(c3)O[C@H](c3ccc(O)cc3)CC4=O)O[C@H](CO)[C@@H](O)[C@@H]2O)[C@H](O)[C@H](O)[C@H]1O` [naringin, Naringin], for which the “SrtA inhibition (result in words)” value in data set [1] is listed as “statistically significant SrtA inhibition”. The compound further had a Maximum lethality in data set [3] of at most 30%.
As for `COc1cc(/C=C/C(=O)O)ccc1O` [trans-ferulic acid, trans-Ferulic acid], the “SrtA inhibition (result in words)” value in data set [1] is “inactive”.
